One block for each compound: values may come before it.
Tests used:
ERK1/2 = ERK1/2 degradation in A375 cells, immunoblot; type: cell-based; details: for ERK1/2 degradation: then Tz-thalidomide-Me 10 μM 18 h
BRD4 = BRD4 (Homo sapiens, UniProt O60885); assay: BRD4 degradation in HeLa cells, immunoblot; type: cell-based

Structure (SMILES): O=C1CCC(N2C(=O)c3ccccc3C2=O)C(=O)N1 (stereo not drawn) [thalidomide]
ERK1/2 degradation, competition (ERK1/2; Probe 1 4 h, then untagged thalidomide 10 μM and Tz-thalidomide 1 μM 18 h): degradation of ERK1/2 was suppressed

BRD4 level (BRD4; JQ1-TCO 10 μM 18 h, then Tz-thalidomide-Me 10 μM 18 h): remained unchanged
Structure (SMILES): Cc1nnc(-c2ccc(CNC(=O)CCCCCOc3cccc4c3C(=O)N(C3CCC(=O)N(C)C3=O)C4=O)cc2)nn1 (stereo not drawn) [Tz-thalidomide-Me]
ERK1/2 degradation (ERK1/2; Probe 1 4 h): insignificant degradation of ERK1/2 | ERK1/2 degradation (ERK1/2; Probe 1 4 h, listed as methyl-Tz-thalidomide): reduced ERK1/2 degradation

BRD4 levels with proteasome inhibitor (BRD4; 4-h pretreatment with carfilzomib 1 μM, JQ1-TCO and Tz-thalidomide treatment): BRD4 levels were rescued
Structure (SMILES): CC(C)C[C@H](NC(=O)[C@H](CCc1ccccc1)NC(=O)CN1CCOCC1)C(=O)N[C@@H](Cc1ccccc1)C(=O)N[C@@H](CC(C)C)C(=O)[C@@]1(C)CO1 [carfilzomib]
ERK1/2 degradation with proteasome inhibitor (ERK1/2; 4-h pretreatment with carfilzomib 1 μM, Probe 1 and Tz-thalidomide): ERK1/2 degradation was prevented

From paper PMC5200928 (ACS Central Science, 2016)
